Experimental data as given in patent US11952365B2, “Anti-viral compounds” (Aligos Therapeutics, Inc., priority 2020, dated 2024).
Read-outs that look alike come from different tables or passages of the source.

Columns and labels:
[1] = target: HRV3C (Human rhinovirus 14, UniProt P03303); assay: HRV3C protease assay (duplex, SAMDI-MS); type: biochemical, HRV; conditions: HRV3C, 30 mins preincubation, read-out: HRV IC50
Outline: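 Readout is SAMDI mass spectrometry: biotinylated substrates, products and internal standards were immobilized on neutravidin monolayers and product formation taken as the AUC ratio to internal standard. Reactions ran 30 min at ambient temperature after 30 min compound preincubation, in duplex with 3CLpro. IC50 values came from four-parameter curve fitting.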

[2] = tested on: human beta-coronavirus OC43; assay: microbe, parasite or virus in culture; type: cell-based; conditions: Betacoronavirus 1, OC43, HeLa, 144 h, OC43 in HeLa cells, 6 days at 33° C., read-out: EC50
[3] = Cytotoxicity plates without OC43 virus (cell-titer-glo); type: cell-based, human; conditions: human; HeLa cells without OC43 virus, class symbols
Outline: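 Run as a virus-free counterpart of the OC43 cytopathic-effect assay. Attached HeLa cells received compound dilutions in EMEM with 2% FBS and were kept 6 days at 33 °C. Cell viability was then measured by CellTiter-Glo luminescence.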

[4] = tested on: SARS-CoV-2-GHB-03021/2020; assay: SARS-CoV-2 Infection Model in Huh7 Cells; type: cell-based; conditions: Severe acute respiratory syndrome coronavirus 2, Huh-7, 96 h, SARS-CoV-2, day 4 p.i., MTS
[5] = tested on: SARS-CoV-2-GHB-03021/2020; assay: microbe, parasite or virus in culture; type: cell-based; conditions: Severe acute respiratory syndrome coronavirus 2, Vero C1008, 96 h; read-out: VeroE6 + CP (EC50)
[6] = target: T1, human cathepsin L (Homo sapiens, UniProt P07711); assay: cathepsin L assay; type: biochemical; conditions: 10 pM human cathepsin L, Z-FR-AMC 2 μM, class symbols
T1 construct: purchased R&D Systems
Outline: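 Reactions began by adding 2 μM (final) Z-FR-AMC substrate to 10 pM human cathepsin L that had been preincubated 30 min with inhibitor. Kinetic AMC fluorescence at 355/460 nm over 30 min at 2-min intervals; four-parameter fitting gave IC50 values.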

[7] = in vitro; conditions: human
[8] = in vitro; conditions: African green monkey, VeroE6 + CP (CC50), Vero E6-eGFP cells with CP-100356, absence of virus, MTS
[9] = target: 3CLpro (Severe acute respiratory syndrome coronavirus 2, UniProt P0DTD1); assay: SARS-CoV-2 3CLpro protease assay (duplex, SAMDI-MS); type: biochemical; set-up: For the duplex assay, 3CLpro and HRV3C was added; conditions: 3CLpro, 30 mins preincubation, read-out: SARS-Cov-2 IC50

Structure (SMILES)	IC50 ([1]; bound)	EC50 ([2]; class symbols)	CC50 at 6 days [3]	EC50 ([4]; class symbols)	EC50 [5]	IC50 [6]	CC50 [7]	CC50 ([8]; numeric bounds)	IC50 ([9]; class symbols)	CC50 ([8]; class symbols)	IC50 ([9]; bound)	IC50 ([1]; class symbols)	EC50 ([2]; bound)	EC50 ([4]; numeric bounds)
N#C[C@H](C[C@@H]1CCNC1=O)NC(=O)[C@@H]1[C@H]2CCC[C@H]2CN1C(=O)c1cc2c(Cl)ccc(Cl)c2[nH]1 [Compound 167, (1S,3aR,6aS)—N-[(1S)-1-cyano-2-[(3S)-2-oxopyrrolidin-3-yl]ethyl]-2-(4,7-dichloro-1H-indole-2-carbonyl)-hexahydro-1H-cyclopenta[c]pyrrole-1-carboxamide]	> 10 µM	0.1 to 1 µM	> 10 µM	< 1 µM	< 1 µM	≥ 10 µM	> 10 µM	> 50 µM	0.2 to 2 µM	–	–	–	–	–
O=C1NCC[C@H]1C[C@H](NC(=O)[C@@H]1[C@H]2CCC[C@H]2CN1C(=O)c1cc2c(Cl)ccc(C(F)(F)F)c2[nH]1)C(=O)CO [Compound 117, (1S,3aR,6aS)-2-[4-chloro-7-(trifluoromethyl)-1H-indole-2-carbonyl]-N-[(2S)-4-hydroxy-3-oxo-1-[(3S)-2-oxopyrrolidin-3-yl]butan-2-yl]-hexahydro-1H-cyclopenta[c]pyrrole-1-carboxamide]	> 10 µM	0.1 to 1 µM	> 10 µM	< 1 µM	< 1 µM	≥ 10 µM	> 50 µM	> 50 µM	0.02 to 0.2 µM	–	–	–	–	–
O=C1NCC[C@H]1C[C@H](NC(=O)[C@@H]1[C@H]2CCC[C@H]2CN1C(=O)c1cc2c(Cl)cc(-c3ccccc3)cc2[nH]1)C(=O)CO [Compound 120, (1S,3aR,6aS)-2-(4-chloro-6-phenyl-1H-indole-2-carbonyl)-N-[(2S)-4-hydroxy-3-oxo-1-[(3S)-2-oxopyrrolidin-3-yl]butan-2-yl]-hexahydro-1H-cyclopenta[c]pyrrole-1-carboxamide]	> 10 µM	< 0.1 µM	> 10 µM	< 1 µM	< 1 µM	≥ 10 µM	1 to 10 µM	–	< 0.02 µM	> 10 µM	–	–	–	–
O=C(NCc1ccccc1)C(=O)[C@H](Cc1cccnc1)NC(=O)[C@@H]1CC2(CC2)CN1C(=O)c1cc2ccccc2[nH]1 [Compound 111, (S)—N—((S)-4-(benzylamino)-3,4-dioxo-1-(pyridin-3-yl)butan-2-yl)-5-(1H-indole-2-carbonyl)-5-azaspiro[2.4]heptane-6-carboxamide]	> 10 µM	10 to 100 µM	> 10 µM	1 to 10 µM	> 100 µM	< 0.1 µM	> 10 µM	> 100 µM	–	–	> 10 µM	–	–	–
O=C(NC1CC1)C(=O)[C@H](C[C@@H]1CCNC1=O)NC(=O)[C@@H]1CC2(CCN1C(=O)c1cc3cc(F)ccc3[nH]1)CC2 [Compound 147]	–	0.1 to 1 µM	> 10 µM	10 to 100 µM	10 to 100 µM	≥ 10 µM	> 50 µM	> 50 µM	< 0.02 µM	–	–	2 to 20 µM	–	–
C=C[C@@H]1C[C@@H](C(=O)N[C@@H](C[C@@H]2CCNC2=O)C(=O)C(=O)NCc2ccccc2)N(C(=O)c2cc3ccccc3[nH]2)C1 [Compound 30]	–	0.1 to 1 µM	> 10 µM	1 to 10 µM	1 to 10 µM	< 0.1 µM	> 100 µM	> 100 µM	0.02 to 0.2 µM	–	–	0.2 to 2 µM	–	–
COc1cccc2[nH]c(C(=O)N3C[C@]4(C[C@H]3C(=O)NC(C[C@@H]3CCCNC3=O)C(=O)C(=O)NCc3ccccc3)CC4(F)F)cc12 (stereo partly drawn) [Compound 33, N-benzyl-3-{[(3S,6S)-1,1-difluoro-5-(4-methoxy-1H-indole-2-carbonyl)-5-azaspiro[2.4]heptan-6-yl]formamido}-2-oxo-4-[(3S)-2-oxopiperidin-3-yl]butanamide]	–	0.1 to 1 µM	> 10 µM	1 to 10 µM	< 1 µM	0.1 to 1 µM	> 100 µM	> 100 µM	0.02 to 0.2 µM	–	–	0.2 to 2 µM	–	–
O=C1NCC[C@H]1C[C@H](NC(=O)[C@@H]1[C@H]2CCC[C@H]2CN1C(=O)c1cc2c(OCc3ccccc3)cccc2[nH]1)C(=O)CO [Compound 133, (1S,3aR,6aS)-2-[4-(benzyloxy)-1H-indole-2-carbonyl]-N-[(2S)-4-hydroxy-3-oxo-1-[(3S)-2-oxopyrrolidin-3-yl]butan-2-yl]-hexahydro-1H-cyclopenta[c]pyrrole-1-carboxamide]	> 10 µM	< 0.1 µM	> 10 µM	< 1 µM	< 1 µM	≥ 10 µM	> 50 µM	> 50 µM	< 0.02 µM	–	–	–	–	–
C[C@@H]1C[C@@H](C(=O)N[C@@H](C[C@@H]2CCNC2=O)C(=O)C(=O)NCc2ccccc2)N(C(=O)c2cc3ccccc3[nH]2)C1 [Compound 25]	–	1 to 10 µM	> 10 µM	10 to 100 µM	10 to 100 µM	0.1 to 1 µM	> 100 µM	> 100 µM	2 to 20 µM	–	–	2 to 20 µM	–	–
COc1cccc2[nH]c(C(=O)N3C[C@H](C(F)(F)F)C[C@H]3C(=O)N[C@@H](C[C@@H]3CCCNC3=O)C(=O)COCc3ccccc3)cc12 [Compound 45A]	–	0.1 to 1 µM	> 10 µM	1 to 10 µM	1 to 10 µM	≥ 10 µM	> 10 µM	–	0.02 to 0.2 µM	> 10 µM	–	2 to 20 µM	–	–
Cc1ccc2[nH]c(C(=O)N3CCC4(CC4)C[C@H]3C(=O)N[C@@H](C[C@@H]3CCNC3=O)C(=O)C(=O)NC3CC3)cc2c1 [Compound 146]	–	0.1 to 1 µM	> 10 µM	1 to 10 µM	1 to 10 µM	1 to 10 µM	> 10 µM	> 50 µM	< 0.02 µM	–	–	2 to 20 µM	–	–
COc1cccc2[nH]c(C(=O)N3C[C@@H]4CCC[C@@H]4[C@H]3C(=O)N[C@@H](CN3CCCNC3=O)C(=O)C(=O)NC3CC3)cc12 [Compound 118]	> 10 µM	–	> 10 µM	–	> 50 µM	≥ 10 µM	> 10 µM	> 50 µM	2 to 20 µM	–	–	–	> 10 µM	> 50 µM
CS(=O)(=O)Oc1cccc2[nH]c(C(=O)N3C[C@@H]4CCC[C@@H]4[C@H]3C(=O)N[C@@H](C[C@@H]3CCNC3=O)C(=O)CO)cc12 [Compound 155, 2-[(1S,3aR,6aS)-1-{[(2S)-4-hydroxy-3-oxo-1-[(3S)-2-oxopyrrolidin-3-yl]butan-2-yl]carbamoyl}-hexahydro-1H-cyclopenta[c]pyrrole-2-carbonyl]-1H-indol-4-yl methanesulfonate]	> 10 µM	1 to 10 µM	> 10 µM	–	10 to 100 µM	≥ 10 µM	> 50 µM	> 50 µM	0.02 to 0.2 µM	–	–	–	–	> 50 µM
O=C1NCC[C@H]1C[C@H](NC(=O)[C@@H]1[C@H]2CCC[C@H]2CN1C(=O)c1cc2c(Oc3ccccc3)cccc2[nH]1)C(=O)CO [Compound 123, (1S,3aR,6aS)—N-[(2S)-4-hydroxy-3-oxo-1-[(3S)-2-oxopyrrolidin-3-yl]butan-2-yl]-2-(4-phenoxy-1H-indole-2-carbonyl)-hexahydro-1H-cyclopenta[c]pyrrole-1-carboxamide]	> 10 µM	0.1 to 1 µM	> 10 µM	1 to 10 µM	1 to 10 µM	≥ 10 µM	> 50 µM	> 50 µM	0.02 to 0.2 µM	–	–	–	–	–
